# Values joined by “and” are separate entries in the source; they are usually repeats but may differ in a detail not shown here. Equal entries are not always repeated.
# Columns and labels:
# [1] = test system: pain following cataract surgery; test: Clinical study after cataract surgery: Grade 0 pain; assay type: in vivo, human
# Description: (§1) There were 8 treatment groups in this study, consisting of three drug doses, vehicle and three dosing frequencies (see also Table 4-1): • Group A: 1% BOL-303242-X ophthalmic suspension, two times per day (BID) • Group B: 2% BOL-303242-X ophthalmic suspension, one time per day (QD) • Group C: 2% BOL-303242-X ophthalmic suspension, BID • Group D: 2% BOL-303242-X ophthalmic suspension, four times per day (QID) • Group E: 3% BOL-303242-X ophthalmic suspension, QD • Group F: 3% BOL-303242-X ophthalmic suspension, BID • Group G: 3% BOL-303242-X ophthalmic suspension, QID • Group H: Vehicle for BOL-303242-X (divided equally into QID, BID, and QD)
# Subjects self-administered study drug, instilling 1 to 2 drops of study drug into the study eye: QID at approximately 4 hour intervals, BID at approximately 12 hour intervals, or QD once in the morning, for 14 days. The initial dose occurred in the clinic at Visit 3 and the final dose was on the day before Visit 6 (postoperative Day 15±1 day). Subjects were examined and evaluated according to the following schedule:
# (§2) Visit 1 (screening), Visit 2 (cataract surgery), Visit 3 (postoperative Day 1), Visit 4 (postoperative Day 3±1 day), Visit 5 (postoperative Day 8±1 day), Visit 6 (postoperative Day 15±1 day), Visit 7 (postoperative Day 18±1 day). Subject assessments included adverse events (AEs), concomitant medications, ocular symptoms, pinholed Snellen visual acuity (VA), intraocular pressure (IOP), ocular signs (biomicroscopy), fundoscopy, and study drug drop sensation. In addition, subject diaries were collected and reviewed for accuracy and treatment compliance.
# Secondary Efficacy: The secondary efficacy endpoints for this study were the proportions of subjects with Grade 0 pain at Visit 5 (postoperative Day 8) and at each visit, complete resolution of AC cells at each visit, complete resolution of AC cells and flare at each visit, complete resolution of AC flare at each visit, change from baseline to each follow-up visit in AC cells and AC flare combined and separately, ocular symptoms.
# ocular signs = test: Clinical study after cataract surgery: ocular signs (biomicroscopy); assay type: in vivo, human
# Description: as §1, §2
# Safety: The safety endpoints in this study were: incidence of AEs, change in IOP, ocular signs (biomicroscopy), Snellen VA, fundoscopy, study drug drop sensation assessment.
# [2] = test system: MPO activity in iris-ciliary body; test: Myeloperoxidase (MPO) activity in iris-ciliary body, rabbit paracentesis model; assay type: in vivo, Rabbit (New Zealand); conditions: for MPO activity in iris-ciliary body: individual samples collected after the second paracentesis, listed as BOL; for MPO activity in iris-ciliary body, Mean: after the second paracentesis, group mean
# Procedure: Each rabbit was placed in a restraint device and tagged with the alphanumeric code. The formulations were instilled (50 μl) into the conjunctival sac of both eyes 180, 120, 90 and 30 min before the first paracentesis; then 15, 30, 90 min after the first paracentesis. To perform the first paracentesis the animals were anaesthetized by intravenous injection of 5 mg/kg Zoletil® (Virbac; 2.5 mg/kg tiletamine HCl and 2.5 mg/kg zolazepam HCl) and one drop of local anesthetic (Novesina®, Novartis) was administered to the eye. Anterior chamber paracentesis was performed with a 26 G needle attached to a tuberculin syringe; the needle was introduced into the anterior chamber through the cornea, taking care not to damage the tissues. Two hours after the first paracentesis, the animals were sacrificed with 0.4 ml Tanax® (Intervet International B.V.) and the second paracentesis was performed. About 100 μl of aqueous humor were removed at the second paracentesis. Aqueous humor was immediately split in four aliquots and stored at −80° C. until analysis. Then both eyes were enucleated and the iris-ciliary body was carefully excised, placed in polypropylene tubes, and stored at −80° C. until analysis.
# The activity of MPO was measured as previously described by Williams et al.[5] The iris-ciliary bodies were carefully dried, weighed and immersed in 1 ml of hexa-decyl-trimethyl-ammonium bromide solution. Then, the samples were sonicated for 10 sec on ice by a ultrasound homogenizer (HD 2070, Bandelin electronic), freeze-thawed three times, sonicated for 10 sec and centrifuged at 14,000 g for 10 min to remove cellular debris. An aliquot of the supernatant (40-200 μl) was diluted to 3 ml with the o-dianisidine 2HCl/H2O2 solution. The change in absorbance at 460 nm was continuously monitored for 5 min by a spectrophotometer (UV/Vis Spectrometer Lambda EZ 201; Perkin Elmer). The slope of the line (Δ/min) was determined for each sample and used to calculate the number of units of MPO in the tissue as follows:
# Values were expressed as units of MPO/g of tissue.
# Pupillary diameter, PGE2, protein, PMN, and MPO were expressed as mean±SEM. Statistical analysis was performed using one way ANOVA followed by a Newman-Keuls post hoc test. Clinical score was expressed as % of eyes and the statistical analysis was performed using Kruskal-Wallis followed by a Dunn post hoc test. P<0.05 was considered statistically significant in both cases. Prism 4 software (GraphPad Software, Inc.) was used for the analysis and graphs.
# [3] = test system: anterior-segment inflammation after anterior chamber paracentesis; test: Rabbit paracentesis model, overall anti-inflammatory activity; assay type: in vivo, Rabbit (New Zealand)
# [4] = test system: IL-1β-stimulated cytokine expression in primary human corneal epithelial cells; test: IL-1β-stimulated cytokine production in primary human corneal epithelial cells (30-cytokine Luminex kit); conditions: HCECs
# Procedure: Primary HCECs were seeded in 24-well plates. […] Each treatment was performed in triplicate. Media were collected and used for determination of cytokine content using a 30-cytokine Luminex kit. Cell viability was determined by alamarBlue assay (LP06013).
# Median fluorescence intensity (MFI) was used to obtain the concentration of each cytokines in pg/ml based on the standard curve of each cytokine assayed by Luminex. The linear range of the standard curve for each cytokine was used for determination of cytokine concentration. Duplicate values for each sample were averaged. Data were expressed as mean±SD. Statistical analysis was performed using one-way ANOVA-Dunnett's test, and P<0.05 was considered statistically significant.
# [5] = test system: New Zealand White rabbits; test: Mortality/morbidity in New Zealand White rabbits, topical dosing four times daily; assay type: in vivo; conditions: for Mortality (rabbits that died or were euthanized between Days 11 and 33): right eye four times daily, Days 1-31
# Procedure: On Days 1-31, animals received daily topical doses of the appropriate test article into the right eye. Animals were dosed four times per day, with doses administered 2 hours apart. Doses were administered using a calibrated 50-μL pipette. The eyelids were held close for 10 seconds immediately following dosing. The time of each dose administration was recorded.
# Animals determined to be moribund were euthanized with an intravenous injection of commercial euthanasia solution.
# [6] = Group D, 1 mg/g (0.05 mg/dose) 4 x daily, individual rabbit
compound,measurement,setting,value
"Cc1ccc2c(NC[C@](O)(CC(C)(C)c3cc(F)cc4c3OCC4)C(F)(F)F)cccc2n1 [BOL-303242-X, mapracorat]",proportion of subjects with Grade 0 pain,"[1]; 2% QID, Visit 5 (postoperative Day 8), vehicle 50.0%",78.3%
same,proportion of subjects with Grade 0 pain,"[1]; 3% BID, Visit 7 (postoperative Day 18), vehicle 31.7%",63.3%
same,proportion of subjects with Grade 0 pain,"[1]; 3% QID, Visit 7 (postoperative Day 18), vehicle 31.7%",58.3%
same,"proportions of subjects with increases in scores for anterior vitreous haze, corneal edema, corneal staining, eyelid erythema, hyphema, and posterior synechiae",ocular signs; any dose groups at any postoperative visits,No statistically significant differences
same,"proportions of subjects with increases in scores for AC cells, AC flare, bulbar conjunctival injection, chemosis, ciliary flush, palpebral conjunctival injection","ocular signs; certain dose groups at Visits 4, 5, 7 as listed",statistically significantly lower proportions of subjects with increases in scores
same,MPO activity in iris-ciliary body,[2]; 0.1% BOL,1.04 Unit/g and 1.14 Unit/g and 1.06 Unit/g and 1.22 Unit/g and 1.05 Unit/g
same,"MPO activity in iris-ciliary body, Mean",[2]; 0.1% formulation,0.971 MPO Unit/g
same,MPO activity in iris-ciliary body,[2]; 0.5% BOL,1.03 Unit/g
same,"MPO activity in iris-ciliary body, Mean",[2]; 0.5% formulation,0.775 MPO Unit/g
same,MPO activity in iris-ciliary body,[2]; 1% BOL,1.02 Unit/g
same,"MPO activity in iris-ciliary body, Mean",[2]; 1% formulation,0.542 MPO Unit/g
same,Activity in the rabbit paracentesis model,"[3]; 0.1%, 0.5% and 1% topical formulations, preliminary conclusion",active in this model
same,Anti-inflammatory effectiveness compared with steroid and NSAID positive controls,[3]; rabbit paracentesis model,as effective an anti-inflammatory drug as some of the commonly accepted prior-art steroids or NSAID
same,"Potency relative to dexamethasone, inhibition of IL-1β-stimulated IL-6, IL-7, TGF-α, TNF-α, VGEF, and MCP-1",[4],comparable potency
same,"Potency relative to dexamethasone, inhibition of IL-1β-stimulated production of G-CSF",[4],more potent than dexamethasone
same,"Potency relative to dexamethasone, inhibition of IL-1β-stimulated production of GM-CSF, IL-8, and RANTES",[4],somewhat less potent than dexamethasone
same,"Inhibition of IL-1β-stimulated production of IL-6, IL-7, MCP-1, TGF-α, TNF-α and VEGF","[4]; 10 ng/ml IL-1β, 18 h, comparable potency of both compounds",significantly inhibited
same,Effect on IL-1β-stimulated G-CSF production,[4]; 18 h,significantly inhibited
same,"Inhibition of IL-1β-stimulated production of GM-CSF, IL-8, and RANTES","[4]; 18 h, less potency compared to dexamethasone",significantly inhibited
same,Mortality (rabbits that died or were euthanized between Days 11 and 33),[5]; 0.05 mg/dose (0.1% dexamethasone suspension or 1 mg/g BOL-303242-X),one of ten
same,Mortality (rabbits that died or were euthanized between Days 11 and 33),[5]; 5 mg/g suspension ([…]),two of ten
same,Morbidity noted in a surviving rabbit,"[5]; 10 mg/g (0.5 mg/dose), one surviving rabbit (Group B, No. 3048)",diarrhea on Day 18
same,Mortality (rabbits that died or were euthanized between Days 11 and 33),[5]; 10 mg/g suspension (0.5 mg/dose),one of ten
same,Mortality rate per dose level,"[5]; 0.05, 0.25, or 0.5 mg/dose four times daily up to 31 days",1-2 deaths per 10 rabbits
same,Day of Death (day euthanized or found dead),"[5]; Group B, 10 mg/g (0.5 mg/dose) 4 x daily, individual rabbit",11
same,Day of Death (day euthanized or found dead),[5]; [6],29
same,Recorded Notes on death,[5]; [6],Found dead.

# Source: patent publication US20120316199A1, “COMPOSITIONS AND METHODS FOR TREATING, CONTROLLING, REDUCING, OR AMELIORATING INFLAMMATORY PAIN” (priority 2011, published 2012)
